This is an account of results in patent publication US20220047559A1, “DRUG COMPOSITION FOR TREATING BREAST CANCER AND METHOD FOR MANUFACTURING THE SAME” (National Chiao Tung University, priority 2020, published 2022).

The nature of data set [1]: Release of drugs from dialysis bag in pH 7.4 PBS buffer solution. Format: physicochemical. The conditions noted are these: 37° C. The procedure:
FIG. 3A and FIG. 3B show the release curves of ganetespib. FIG. 3C and FIG. 3D show the release curves of curcumin For free ganetespib, the dialysis bag stops release after 8 hours, and about 73% ganetespib is released. For ganetespib in the drug composition, the dialysis bag continues release until as long as 12 hours has elapsed, and about 80% ganetespib is released. As indicated by the arrows in FIG. 3B, CHC/GAN where ganetespib is encapsulated by CHC releases ganetespib more slowly and has higher content of ganetespib. It is because CHC protects ganetespib from being damaged by the environment and makes ganetespib release slowly. For free curcumin, although the dialysis bag have continued releasing curcumin for as long as 168 hours, the accumulated released curcumin is only about 8%. The slow release rate of free curcumin is owing to low aqueous solubility of curcumin Low aqueous solubility of curcumin also leads to low bioavailability of curcumin. The release rate of the curcumin in CHC/CCM is about the same as the free curcumin. The accumulated released curcumin of the curcumin in CHC/CCM is about 9%, slightly higher than that of the free curcumin. However, it can be seen in FIG. 3D: the difference therebetween increases with time.

Data set [2] has as its system SK-BR-3 cells. Nature of the data set: Cytotoxicity test (MTS, cell survival rate, IC50, combination index). The format is cell-based. The following applies: Homo sapiens, 48 hours. The procedure: Culture SK-BR-3 cells in a 24-well culture plate, and each well has 10^4 cells. After cells have attached to the culture plate for 20-24 hours, remove the culture liquid, and rinse the cells with PBS. Use Dulbecco's Modified Eagle Medium (DMEM) to dilute the drug compositions GAN, CCM, CHC/GAN, CHC/CCM, and CHC/GAN-CCM. Add the diluted drug compositions to the cells, and co-culture each drug composition and the cells for 48 hours. Remove DMEM, and flush the product of co-culture with PBS. Add MTS and DMEM (1:5 (v/v)) into each well of the cell culture plate, and culture them for 2-4 hours. Use a microplate reader to measure the absorptivity of the light having a wavelength of 490 nm, whereby to estimate the cell survival rates. The cell survival rate can be used to determine the half inhibitory concentration (IC50) and the combination index (CI) of two drugs. CHC/GAN and CHC/CCM can more effectively kill cells than the drugs in form of free molecules. […] Therefore, the drug composition carried by CHC nanoparticles can more effectively treat breast cancer in smaller dosage. Especially, while ganetespib is carried by CHC nanocarriers, the treating effect may be increased 60-70 times. […] The results also indicate that the effective concentration of the drug composition of the present invention may be lower than that of the conventional drug composition. […]

As usually defined, the IC50 is the midpoint of a concentration-inhibition curve. As to `COc1cc(/C=C/C(=O)CC(=O)/C=C/c2ccc(O)c(OC)c2)ccc1O` [CCM, curcumin], the accumulated released curcumin result in data set [1] (168 hours) is on record as “about 8%”. In addition, the IC50 in data set [2] (curcumin) amounted to 12 µg/mL.

Take `CC(C)c1cc(-c2n[nH]c(=O)n2-c2ccc3c(ccn3C)c2)c(O)cc1O` [GAN, ganetespib]: in data set [1], the “time after which release of ganetespib stops” value was determined as 8 h. Also, in data set [1] (at the time release stops), the ganetespib released result is given as “about 73%”. Moreover, in data set [2] (ganetespib), the IC50 stood at 0.00188 µg/mL.
